According to ChEMBL document CHEMBL4138244, “Structure-based identification of a NEDD8-activating enzyme inhibitor via drug repurposing” (Eur J Med Chem, 2018):
pEC50, pIC50: −log10 of the molar value. Active and inactive are the calls of the source. No cut-off for these calls is given here.

Key:
[1] = molecular target: T1, NEDD8 activating enzyme (Homo sapiens) (UniProt Q8TBC4+Q13564); test: (§1) Inhibition of NAE-mediated Ubcl2-NEDD8 conjugation in human Caco2 cells after 16 hrs by Western blot analysis; type: cell-based
[2] = molecular target: T1, NEDD8 activating enzyme (Homo sapiens); test: Competitive inhibition of NAE (unknown origin) assessed as decrease in NAE-mediated Ubc12-NEDD8 conjugation levels at 10 uM preincubated for 10 mins followed by Mg2+ and various concentrations of ATP addition measured after 60 mins by Lineweaver-Burk plot analysis; type: protein-complex assay
[3] = test system: Caco-2; test: Induction of apoptosis in human Caco2 cells assessed as early apoptotic cells at 10 uM after 16 hrs by Annexin V-FITC/propidium iodide staining-based flow cytometric analysis (reference value: 1.40%); type: functional
[4] = test system: Caco-2; test: Induction of apoptosis in human Caco2 cells assessed as late apoptotic cells at 10 uM after 16 hrs by Annexin V-FITC/propidium iodide staining-based flow cytometric analysis (reference value: 0.072%); type: functional
[5] = test system: Caco-2; test: Induction of apoptosis in human Caco2 cells assessed as necrotic cells at 10 uM after 16 hrs by Annexin V-FITC/propidium iodide staining-based flow cytometric analysis (reference value: 0.12%); type: functional
[6] = test system: Caco-2; test: Induction of apoptosis in human Caco2 cells assessed as viable cells at 10 uM after 16 hrs by Annexin V-FITC/propidium iodide staining-based flow cytometric analysis (reference value: 98.4%); type: functional; conditions: Caco-2, 16 h, read-out: Activity
[7] = test system: Caco-2; test: Cytotoxicity against human Caco2 cells after 72 hrs by MTT assay; type: functional, cell-based; conditions: Caco-2, 72 h
[8] = molecular target: T1, NEDD8 activating enzyme (Homo sapiens); test: Inhibition of NAE in human Caco2 cells assessed as increase in p53 protein levels at 0.1 to 10 uM after 16 hrs by Western blot analysis; type: cell-based
[9] = molecular target: T1, NEDD8 activating enzyme (Homo sapiens); test: Inhibition of NAE in human Caco2 cells assessed as increase in c-myc protein levels after 16 hrs by Western blot analysis; type: cell-based
[10] = test system: Caco-2; test: Induction of apoptosis in human Caco2 cells assessed as viable cells at 1 uM after 16 hrs by Annexin V-FITC/propidium iodide staining-based flow cytometric analysis (reference value: 98.4%); type: functional; conditions: Caco-2, 16 h, read-out: Activity
[11] = molecular target: T2, NEDD8 activating enzyme (Homo sapiens, UniProt Q8TBC4); test: as §1; type: cell-based
T2 sequence (Q8TBC4 whole entry): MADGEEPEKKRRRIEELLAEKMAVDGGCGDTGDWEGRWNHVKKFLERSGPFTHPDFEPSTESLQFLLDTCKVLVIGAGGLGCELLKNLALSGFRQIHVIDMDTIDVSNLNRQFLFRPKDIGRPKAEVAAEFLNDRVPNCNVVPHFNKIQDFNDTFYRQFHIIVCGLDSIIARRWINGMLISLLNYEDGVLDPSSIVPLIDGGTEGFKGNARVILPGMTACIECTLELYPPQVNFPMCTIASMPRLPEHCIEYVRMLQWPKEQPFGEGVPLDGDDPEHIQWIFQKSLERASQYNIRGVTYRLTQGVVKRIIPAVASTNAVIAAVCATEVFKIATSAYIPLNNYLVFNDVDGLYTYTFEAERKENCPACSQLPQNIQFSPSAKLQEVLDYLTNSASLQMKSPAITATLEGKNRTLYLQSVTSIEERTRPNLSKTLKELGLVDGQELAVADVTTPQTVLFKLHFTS
T2 sequence (Q13564 whole entry): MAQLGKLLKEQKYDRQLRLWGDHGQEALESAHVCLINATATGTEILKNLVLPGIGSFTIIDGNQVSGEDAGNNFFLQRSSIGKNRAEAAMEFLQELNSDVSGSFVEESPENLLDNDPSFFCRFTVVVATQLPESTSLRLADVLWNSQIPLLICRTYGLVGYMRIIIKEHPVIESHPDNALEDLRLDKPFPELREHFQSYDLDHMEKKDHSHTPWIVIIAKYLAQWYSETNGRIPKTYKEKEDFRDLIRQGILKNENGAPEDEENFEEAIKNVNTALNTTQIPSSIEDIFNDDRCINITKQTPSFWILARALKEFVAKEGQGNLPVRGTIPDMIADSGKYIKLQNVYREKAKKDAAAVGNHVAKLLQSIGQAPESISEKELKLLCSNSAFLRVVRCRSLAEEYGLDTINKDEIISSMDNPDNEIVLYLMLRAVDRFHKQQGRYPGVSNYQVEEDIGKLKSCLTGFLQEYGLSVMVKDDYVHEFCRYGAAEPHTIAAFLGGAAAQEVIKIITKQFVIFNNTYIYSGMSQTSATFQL

[12] = test system: Caco-2; test: Cytotoxicity against NAE-knockdown human Caco2 cells after 72 hrs by MTT assay; type: cell-based; conditions: Caco-2, 72 h
[13] = molecular target: T3, Ubiquitin-like modifier-activating enzyme 1 (Homo sapiens) (UniProt P22314); test: Inhibition of UAE1 (unknown origin) assessed as decrease in UAE1-mediated Ubc10-ubiquitin conjugation levels up to 10 uM preincubated for 10 mins followed by ATP and Mg2+ addition measured after 60 mins by Western blot analysis
T3 sequence (whole entry): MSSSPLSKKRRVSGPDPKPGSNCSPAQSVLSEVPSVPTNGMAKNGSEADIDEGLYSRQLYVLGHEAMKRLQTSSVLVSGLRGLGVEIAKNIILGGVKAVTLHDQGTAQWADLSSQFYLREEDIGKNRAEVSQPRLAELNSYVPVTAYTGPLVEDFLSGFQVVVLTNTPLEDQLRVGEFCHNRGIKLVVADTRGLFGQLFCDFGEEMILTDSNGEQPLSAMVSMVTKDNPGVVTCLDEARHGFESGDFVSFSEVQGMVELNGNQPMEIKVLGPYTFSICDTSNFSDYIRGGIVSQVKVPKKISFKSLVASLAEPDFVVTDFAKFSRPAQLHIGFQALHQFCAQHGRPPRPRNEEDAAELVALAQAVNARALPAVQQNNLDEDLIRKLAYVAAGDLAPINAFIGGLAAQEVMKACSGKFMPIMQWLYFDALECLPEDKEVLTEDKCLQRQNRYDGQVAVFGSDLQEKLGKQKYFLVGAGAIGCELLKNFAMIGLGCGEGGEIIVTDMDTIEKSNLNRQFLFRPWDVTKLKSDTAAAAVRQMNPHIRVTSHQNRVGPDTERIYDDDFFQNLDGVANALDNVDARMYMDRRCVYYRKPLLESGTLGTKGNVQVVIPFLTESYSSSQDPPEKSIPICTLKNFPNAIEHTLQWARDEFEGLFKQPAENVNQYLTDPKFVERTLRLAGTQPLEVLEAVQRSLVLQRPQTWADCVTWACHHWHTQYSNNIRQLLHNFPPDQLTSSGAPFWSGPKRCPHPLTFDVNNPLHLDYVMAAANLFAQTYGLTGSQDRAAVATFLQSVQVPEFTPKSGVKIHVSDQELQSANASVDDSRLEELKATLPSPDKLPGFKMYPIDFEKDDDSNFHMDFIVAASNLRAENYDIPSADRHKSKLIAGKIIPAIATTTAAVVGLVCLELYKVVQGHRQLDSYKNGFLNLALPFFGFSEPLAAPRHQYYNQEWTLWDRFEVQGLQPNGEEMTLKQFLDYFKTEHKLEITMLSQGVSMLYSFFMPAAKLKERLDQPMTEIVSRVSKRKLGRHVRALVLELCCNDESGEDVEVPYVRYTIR

[14] = molecular target: T4, SUMO-activating enzyme (Homo sapiens) (UniProt Q9UBE0+Q9UBT2); test: Inhibition of SAE (unknown origin) assessed as decrease in SAE-mediated Ubc9-SUMO conjugation levels up to 10 uM preincubated for 10 mins followed by ATP and Mg2+ addition measured after 60 mins by Western blot analysis; type: protein-complex assay
[15] = molecular target: T1, NEDD8 activating enzyme (Homo sapiens); test: Inhibition of NAE in human Caco2 cells harboring p53-luc plasmid assessed as increase in p53 transcriptional activity after 16 hrs by luciferase reporter gene assay; type: cell-based
[16] = test system: Caco-2; test: Induction of apoptosis in human Caco2 cells assessed as early apoptotic cells at 1 uM after 16 hrs by Annexin V-FITC/propidium iodide staining-based flow cytometric analysis (reference value: 1.40%); type: functional
[17] = test system: Caco-2; test: Upregulation of p53 protein levels in NAE knockdown human Caco2 cells at 10 uM after 16 hrs by Western blot analysis; type: functional, cell-based
[18] = test system: Caco-2; test: Induction of apoptosis in human Caco2 cells assessed as necrotic cells at 5 uM after 16 hrs by Annexin V-FITC/propidium iodide staining-based flow cytometric analysis (reference value: 0.12%); type: functional
[19] = test system: Caco-2; test: Induction of apoptosis in human Caco2 cells assessed as necrotic cells at 1 uM after 16 hrs by Annexin V-FITC/propidium iodide staining-based flow cytometric analysis (reference value: 0.12%); type: functional
[20] = test system: Caco-2; test: Induction of apoptosis in human Caco2 cells assessed as late apoptotic cells at 5 uM after 16 hrs by Annexin V-FITC/propidium iodide staining-based flow cytometric analysis (reference value: 0.072%); type: functional
[21] = molecular target: T1, NEDD8 activating enzyme (Homo sapiens); test: Inhibition of NAE in human Caco2 cells assessed as increase in p27 protein levels at 0.1 to 10 uM after 16 hrs by Western blot analysis; type: cell-based
[22] = molecular target: T1, NEDD8 activating enzyme (Homo sapiens); test: Inhibition of NAE-mediated Ubcl2-NEDD8 conjugation in human Caco2 cells at 10 uM after 16 hrs by Western blot analysis; type: cell-based
[23] = molecular target: T1, NEDD8 activating enzyme (Homo sapiens); test: Inhibition of NAE in human Caco2 cells assessed as increase in beta-catenin protein levels after 16 hrs by Western blot analysis; type: cell-based
[24] = test system: Caco-2; test: Induction of apoptosis in human Caco2 cells assessed as late apoptotic cells at 1 uM after 16 hrs by Annexin V-FITC/propidium iodide staining-based flow cytometric analysis (reference value: 0.072%); type: functional
[25] = test system: Caco-2; test: Induction of apoptosis in human Caco2 cells assessed as early apoptotic cells at 5 uM after 16 hrs by Annexin V-FITC/propidium iodide staining-based flow cytometric analysis (reference value: 1.40%); type: functional
[26] = molecular target: T1, NEDD8 activating enzyme (Homo sapiens); test: Inhibition of NAE in human Caco2 cells assessed as decrease in Bcl2 protein levels at 0.1 to 10 uM after 16 hrs by Western blot analysis; type: cell-based
[27] = molecular target: T1, NEDD8 activating enzyme (Homo sapiens); test: Inhibition of NAE in human Caco2 cells assessed as increase in p53 protein levels at 1 to 10 uM after 16 hrs by Western blot analysis; type: cell-based
[28] = molecular target: T1, NEDD8 activating enzyme (Homo sapiens); test: Inhibition of NAE (unknown origin) assessed as decrease in NAE-mediated Ubc12-NEDD8 conjugation levels at 10 uM treated for 10 mins post ATP and Mg2+ addition measured after 60 mins by Western blot analysis; type: protein-complex assay
[29] = molecular target: T4, SUMO-activating enzyme (Homo sapiens); test: Inhibition of SAE-mediated Ubc9-SUMO conjugation in human Caco2 cells up to 10 uM preincubated for 10 mins followed by ATP and Mg2+ addition measured after 60 mins by Western blot analysis; type: cell-based
[30] = molecular target: T1, NEDD8 activating enzyme (Homo sapiens); test: Inhibition of NAE in human Caco2 cells assessed as increase in phosphorylated NF-kappaB protein levels at 0.1 to 10 uM after 16 hrs by Western blot analysis; type: cell-based
[31] = molecular target: T3, Ubiquitin-like modifier-activating enzyme 1 (Homo sapiens); test: Inhibition of UAE1-mediated Ubc10-ubiquitin conjugation in human Caco2 cells up to 10 uM preincubated for 10 mins followed by ATP and Mg2+ addition measured after 60 mins by Western blot analysis; type: cell-based
[32] = molecular target: T1, NEDD8 activating enzyme (Homo sapiens); test: Inhibition of NAE in human Caco2 cells assessed as decrease in cyclin D1 protein levels at 0.1 to 10 uM after 16 hrs by Western blot analysis; type: cell-based
[33] = molecular target: T1, NEDD8 activating enzyme (Homo sapiens); test: Inhibition of NAE in human Caco2 cells assessed as increase in p53 protein levels by measuring p53 degradation at 10 uM preincubated for 16 hrs followed by cycloheximide addition measured up to 60 mins by Western blot analysis relative to control; type: cell-based; design: scale not given: the % may be the effect or the level left
[34] = test system: Caco-2; test: Induction of apoptosis in human Caco2 cells assessed as viable cells at 5 uM after 16 hrs by Annexin V-FITC/propidium iodide staining-based flow cytometric analysis (reference value: 98.4%); type: functional; conditions: Caco-2, 16 h, read-out: Activity
[35] = molecular target: T1, NEDD8 activating enzyme (Homo sapiens); test: Inhibition of NAE (unknown origin) assessed as decrease in NAE-mediated Ubc12-NEDD8 conjugation levels preincubated for 10 mins followed by ATP and Mg2+ addition measured after 60 mins by Western blot analysis; type: protein-complex assay

`NS(=O)(=O)OC[C@@H]1C[C@@H](n2ccc3c(N[C@H]4CCc5ccccc54)ncnc32)C[C@@H]1O` [PEVONEDISTAT] was tested, and the inhibition [1] was “Dose-dependent effect”, the inhibition [2] was “Active” and the Activity [3] was 32.8%. The Activity [4] was 14.3%, the Activity [5] was 6.27% and the viability at 10 µM [6] was 46.6%. For the same compound, the pIC50 [7] was 5.36.

In the case of `O=C1c2c(O)ccc(O)c2C(=O)c2c(NCCNCCO)ccc(NCCNCCO)c21` [MITOXANTRONE], the inhibition [8] was “Active”, the inhibition [9] was “Dose-dependent effect” and the viability at 1 µM [10] was 36%. The pEC50 [11] was 5.89, the inhibition [1] was “Dose-dependent effect” and the pIC50 [12] was < 5.00. For the same compound, the inhibition [13] was “inactive”, the inhibition [14] was “inactive” and the inhibition [2] was “Active”. For the same compound, the Activity [3] was 0.91%, the inhibition [15] was “Dose-dependent effect” and the Activity [16] was 42%. The Activity [17] was “Active”, the Activity [18] was 6.07% and the Activity [19] was 2.49%. The Activity [4] was 22.1%, the Activity [20] was 50.7% and the inhibition [21] was “Active”. The Activity [5] was 73.6%, the inhibition [22] was “Active” and the inhibition [23] was “Dose-dependent effect”. For the same compound, the Activity [24] was 19.4%, the Activity [25] was 27.8% and the inhibition [26] was “Active”. For the same compound, the inhibition [27] was “Active”, the inhibition [28] was “inactive” and the inhibition [29] was “inactive”. The inhibition [30] was “Active”, the inhibition [31] was “inactive” and the viability at 10 µM [6] was 3.34%. For the same compound, the pIC50 [7] was 5.85, the inhibition [32] was “Active” and the Activity [33] was 15%. For the same compound, the viability at 5 µM [34] was 15.4% and the inhibition [35] was “Dose-dependent effect”.

`COc1cc([C@@H]2c3cc4c(cc3[C@H](O)[C@H]3COC(=O)[C@H]23)OCO4)cc(OC)c1OC` was tested, and the inhibition [27] was “Active”.
